Source: article PMC11999338, “Factor XI localization in human deep venous thrombus and function of activated factor XI on venous thrombus formation and hemostasis” (Research and Practice in Thrombosis and Haemostasis, 2025)
Entries after “also recorded” stand apart in the source; their conditions may differ.

What was measured:
[1] = test system: PT and aPTT; experiment: PT and aPTT of human blood with inhibitor added in vitro; assay type: biochemical; conditions: ONO-1600586 3 μmol/L, rivaroxaban 1 μmol/L
[2] = test system: thrombi on the collagen surface; experiment: Ex vivo rabbit blood perfusion in flow chamber on collagen surface (70/s); assay type: cell-based; conditions: rabbit blood 75 minutes after oral ONO-1600586 50 mg/kg or rivaroxaban 15 mg/kg, shear rate 70/s
Protocol: Blood from rabbits 75 minutes postadministration of a solvent as a control (n = 5), a FXIa inhibitor (ONO-1600586, 50 mg/kg, n = 5), or a FXa inhibitor (rivaroxaban, 15 mg/kg, n = 5) was collected using 21-gauge needles into plastic syringes containing corn trypsin inhibitor (Molecular Innovations; final concentration 20 μg/mL) and a specific FXa inhibitor, Arixtra (Organon Sanofi-Synthelabo, final concentration 6 μg/mL). Anticoagulated whole blood was stored at room temperature and used for perfusion studies within 1 hour of collection. Next, mepacrine (quinacrine dihydrochloride, Sigma-Aldrich, final concentration 5 μM) was added to the blood before perfusion for platelet labeling, which enables the visualization of platelet-surface interaction through epifluorescence videomicroscopy. Collagen from the horse tendon (Collagen Reagent HORM, Takeda Pharmaceutical, 20 μg/mL) was immobilized on glass coverslips (24 × 50 mm) in parallel-plate flow chambers, as previously described. Blood samples were perfused through the chamber using a syringe pump (KDS100, KD Scientific Inc) at a constant flow rate (15 mL/h) to achieve wall shear rates of 70/s. Platelets interacting with the immobilized collagen were visualized using an inverted stage epifluorescence microscope (IX71, OLYMPUS). Images were captured at 3, 6, and 9 minutes after perfusion with a photosensitive color CCD camera (DP70, Olympus), and surface covering areas were semiquantified using a morphometric analysis system (WinROOF, Mitani).
After perfusion, coverslips were immediately fixed in 95% alcohol for 1 hour at room temperature, stained using antibodies for fibrin (Millipore), and faintly counterstained with Meyer’s hematoxylin. […] Finally, the number of attached cells with multilobulated nuclei was counted as the neutrophil number in 5 fields under a 20× objective lens and expressed as the number of neutrophils per mm^2.

[3] = test system: human thrombus formation in vitro; experiment: In vitro human blood perfusion in flow chamber on collagen and tissue factor (70/s); assay type: cell-based; conditions: rivaroxaban 1 μmol/L, low-shear 70/s
Protocol: The Ethics Committee of the University of Miyazaki approved this study (approval number O-1160). The Collagen Reagent HORM (Takeda Pharmaceutical, 20 μg/mL) and recombinant tissue factor (Dade Innovin, ×1000, Siemens) were immobilized on glass coverslips (24 × 50 mm) in parallel-plate flow chambers, as described above. Blood from healthy human volunteers who were not on medication was collected using 21-gauge needles into plastic syringes containing a corn trypsin inhibitor (Molecular Innovations, final concentration 10 μg/mL). Anticoagulated whole blood was used for the perfusion. The solvent (n = 10), FXIa inhibitor (ONO-1600586, 3 μmol/L, n = 10) or FXa inhibitor (rivaroxaban, 1 μmol/L, n = 10), and mepacrine (Sigma-Aldrich, final concentration 5 μM) were added to the blood before perfusion. Blood samples were perfused through the chamber using a syringe pump (KDS100, KD Scientific Inc) at a constant flow rate (15 mL/h) to achieve wall shear rates of 70/s. Finally, the surface covering area, fibrin-immunopositive area, and the number of neutrophils were analyzed as described above.
The pre-and postperfused blood samples were collected into a tube containing 3.8% sodium citrate anticoagulant (9:1 v/v). Plasma samples were centrifuged at 1500 × g for 15 minutes at room temperature. FXIa and FXa activities were measured using an automatic blood coagulation analyzer (ACL-TOP, Werfen), as well as FXI-deficient plasma (HemosIL Factor XI Deficient Plasma and HemosIL SynthASil APTT, Werfen) and FX-deficient plasma (HemosIL Factor X Deficient Plasma and HemosIL RecombiPlasTin, Werfen). The plasma levels of prothrombin fragment 1 + 2 were measured using an enzyme-linked immunosorbent assay (Enzygnost F1 + 2 Monoclonal, Siemens).

[4] = test system: jugular vein thrombus; experiment: Rabbit model of jugular vein thrombosis by endothelial denudation and luminal stenosis; assay type: in vivo; conditions: rabbits; for venous thrombus weight compared with control: 90 minutes before thrombus formation, thrombus weighed after 3 hours
Protocol: The protocols of the venous thrombosis and skin bleeding models in rabbits were as follows (Supplementary Figure 2). First, fasting rabbits were orally administered a solvent as a control (n = 10), a FXIa inhibitor (ONO-1600586, 5 mg/kg, n = 10; 15 mg/kg, n = 10; and 50 mg/kg, n = 11), or a FXa inhibitor ([…], n = 10 each) using a Nelaton catheter of 5 mm diameter (IZUMO Health Co, Ltd) 90 minutes before thrombus formation. […] Additional anesthesia with one-third amount of the above-mentioned mixture of drugs was administered 80 minutes after the first injection, and all surgical operations proceeded under aseptic conditions. Briefly, 90 minutes postadministration of the solvent, ONO-1600586, or rivaroxaban, venous thrombi were induced in rabbit jugular veins through endothelial denudation using a 3F balloon catheter (Edwards Lifesciences), according to a previous study, and the method was modified to induce luminal stenosis. A 2 mm polyethylene tube was placed outside the vessel. Both the jugular vein and polyethylene tube were ligated, and the tube was removed (Supplementary Figure 3). Next, 3 hours after thrombus formation and stenosis, the rabbits were infused with heparin (500 U/kg, i.v.) and then euthanized with an overdose of pentobarbital (60 mg/kg, i.v.). Subsequently, the animals were perfused with 50 mL phosphate-buffered saline (0.01 mol/L), and the jugular veins were sampled. The venous thrombi were immediately removed from the venous wall and weighed. […] Paraffin-embedded sections (4 μm thick) of the rabbit jugular vein thrombus were stained with HE and morphologically assessed. Consecutive sections of thrombi were immunohistochemically stained with antibodies against fibrin (Millipore) and GPIIb/IIIa (Affinity Biologicals Inc). Images were digitized using a photosensitive color CCD camera (BX51, OLYMPUS). Finally, the area of the red-stained erythrocytes in HE staining and the immunopositive areas for fibrin and GPIIb/IIIa were semiquantified using a color imaging morphometry system (WinROOF, Mitani).

Question: How did the “PT compared with control” value [1] turn out when `O=C(NC[C@H]1CN(c2ccc(N3CCOCC3=O)cc2)C(=O)O1)c1ccc(Cl)s1` [rivaroxaban] was run?
Answer: 1.9 fold

Question: And the “aPTT compared with control” value [1]?
Answer: 1.8 fold

Question: And the PT ([1]; n = 8)?
Answer: 19 ± 3 s

Question: And the aPTT ([1]; n = 8)?
Answer: 62 ± 5 s

Question: What about the “fibrin formation (fibrin-immunopositive area) in the flow chamber” value [2] of the same compound?
Answer: markedly decreased; also recorded: Absence or little fibrin formation

Question: And the “neutrophil attachment on the thrombus” value [2]?
Answer: did not affect

Question: What about the surface covering areas ([2]; 3, 6, 9 minutes) of the same compound?
Answer: did not differ

Question: What about the “fibrin formation in the flow chamber” value ([3]; ONO-1600586 3 μM) of the same compound?
Answer: markedly decreased

Question: And the leukocyte adhesion ([3]; ONO-1600586 3 μmol/L)?
Answer: did not affect

Question: And the “plasma levels of prothrombin fragment 1 + 2 after perfusion” value ([3]; ONO-1600586 3 μmol/L)?
Answer: reduced

Question: What about the platelet covering area ([3]; ONO-1600586 3 μmol/L) of the same compound?
Answer: did not affect

Question: What about the “FXa activity in the plasma after perfusion” value [3] of the same compound?
Answer: reduced

Question: And the “venous thrombus weight compared with control” value ([4]; 1 mg/kg oral (so in the source))?
Answer: tended to reduce

Question: What about the “venous thrombus weight compared with control” value ([4]; 5 mg/kg oral) of the same compound?
Answer: tended to reduce

Question: And the “venous thrombus weight compared with control” value ([4]; 15 mg/kg oral, 15 mg/kg)?
Answer: significantly reduced; also recorded: similarly reduced

Question: And the “immunopositive area of fibrin in venous thrombus” value ([4]; compared with control and ONO-1600586 groups)?
Answer: tended to be smaller

Question: What about the “areas of erythrocytes or immunopositive areas of fibrin or GPIIb/IIIa in venous thrombus” value ([4]; histology of jugular vein thrombus, comparison among groups) of the same compound?
Answer: did not differ
